Where “and” joins values, the source holds several entries; their conditions need not be identical. Equal values may be shown once. Calls of active or inactive are those of the source.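 How the source made its calls: active means compounds giving half or more protection of infected cells from virus-caused growth loss, again on retest; inactive means the rest.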
System: CEM cells HIV-1 protection, formazan growth assay
Test: NCI AIDS Antiviral Assay
Conditions: for IC50: measured here: growth of uninfected CEM cells
Procedure, shortened: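 Soluble formazan readout of cell growth; CEM cells ± HIV-1; 5 drug concs. ≥50% protection → retest; ≥50% again = moderately active; reproducible 100% = confirmed active.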

Structure (SMILES)	outcome	EC50 [µM]	IC50
CCOC(=O)C(CCCCn1cnc2ncnc(Cl)c21)(NC(C)=O)C(=O)OCC	inactive		
COC(=O)C1Cc2c(n(C)c3ccccc23)C(c2ccccc2)N1 (stereo not drawn)	inactive		
CCCSc1nc(-c2ccc(OC)cc2)c(C#N)c(=O)n1C1OC(COC(C)=O)C(OC(C)=O)C(OC(C)=O)C1OC(C)=O (stereo not drawn)		> 200	> 200 µM
N[C@H]1CCC[C@@H](O)C1O (stereo partly drawn)		> 200	> 200 µM
CCC12CCCN(Cc3ccccc3)C1c1c(n(C)c3ccccc13)C(C(=O)O)C2 (stereo not drawn)		> 7.76	> 7.76 µM
CCN1CCC(O)(c2ccc(Oc3ccccc3)cc2)C(C(=O)c2ccc(Oc3ccccc3)cc2)C1 (stereo not drawn)		> 200	13.2 µM
Cc1ccccc1-n1c2nc(=O)n(C)c(=O)c-2nc2ccccc21	inactive		
COc1ccc(OC)c(NC(=O)Nc2nccs2)c1		> 200	> 200 µM
Cc1c(N)c(C#N)c2n(C)c3ncccc3n2c1=O		> 200	> 200 µM
COc1ccc(C(CC(=O)c2cccs2)C(=O)c2cccs2)cc1 (stereo not drawn)		> 200	> 200 µM
COc1nn(C)c(=O)c2cccnc12		> 1100	676 µM
O=C(O)c1c(O)c2cc([N+](=O)[O-])ccc2oc1=O		> 324	> 324 µM
CC(=O)NC1=NC(=O)/C(=C/c2ccc3c(c2)OCO3)N1C		> 200	> 200 µM
O=C(CC1(O)C(=O)Nc2ccc([N+](=O)[O-])cc21)c1ccncc1 (stereo not drawn)		> 20.9	> 20.9 µM
Cc1ccc2c(c1)Nc1ccccc1P2(=O)O		> 200	> 200 µM
CCCCCCN(CCCCCC)C(=O)Cc1c2n(c3ccccc13)Cc1ccccc1-2		> 6.31	> 6.31 µM
CC1=CC(=O)/C(=C/N2C(=S)NC(=O)/C2=C/c2cccc([N+](=O)[O-])c2)C(=O)O1		> 200	138 µM
CC1(C)CC(=O)C2(CC(CSc3ccccc3)C(CS(=O)(=O)c3ccccc3)C2)C(=O)C1 (stereo not drawn)		> 200	> 200 µM
CC1(C)COC(C2Cc3ccccc3C(O)(c3ccccc3)C2)=N1 (stereo not drawn)		> 200	> 200 µM
O=C1NC(S(=O)(=O)O)=NNC12c1ccccc1-c1ccccc12		> 200	107 µM

Structure (SMILES)	outcome	EC50 [µM]	IC50
COc1ccc(-c2nc(-c3cnccn3)n(C/C=C/c3ccccc3)n2)cc1		64.6	> 200 µM
CS(=O)(=O)OCC(CCl)(CCl)CCl		> 933	661 µM
CN(C)C(=O)c1nc(CNC(=O)CN)n(-c2ccc(Cl)cc2C(=O)c2ccccc2)n1		> 200	> 200 µM
O=S(=O)([O-])[O-].O=c1[nH]cnc2nc[n-]c12.[Cu+2].[OH3+].[OH3+]		> 10.7	> 10.7 µM
O=C(NCCN(CCNC(=O)c1cccc(=O)n1O)CCN(CCNC(=O)c1cccc(=O)n1O)CCNC(=O)c1cccc(=O)n1O)c1cccc(=O)n1O		> 200	> 200 µM
O=S1(=O)OCCCO1		> 1820	> 1820 µM
CC(=O)NC1=C(C)C(=O)c2c(nc3n2CCC3OC(=O)c2ccccc2)C1=O (stereo not drawn)		> 200	0.977 µM
S=C1c2cc(Cl)ccc2NC(=NC2CCCC2)C2CSCN12 (stereo not drawn)		> 200	33.9 µM
CCOC(=O)c1c(-c2cccc3ccccc23)c(C#N)c(=S)n(C2OC(COC(C)=O)C(OC(C)=O)C(OC(C)=O)C2OC(C)=O)c1C (stereo not drawn)		> 200	7.76 µM
CC1=CP(=O)(c2ccccc2)CC1 (stereo not drawn) (tested in a mixture with another compound)		> 646	> 646 µM
CC[C@H](OCc1ccccc1)/C(C)=C/C[C@@H](C)CO		> 27.5	> 27.5 µM
CCC1C(c2ccccc2)=CCC(C(=O)O)C1C (stereo not drawn)		> 200	> 200 µM
O=C1OC(c2ccccc2)=N/C1=C\c1ccccc1Cl		> 35.5	> 35.5 µM
N#Cc1c(NC(=O)CN2CCOCC2)c(C(=O)Nc2ccccc2)n2c1CCC2		> 200	> 200 µM
CCOC(=O)C(C)c1nc2cc(F)c(F)cc2[nH]c1=O (stereo not drawn)		> 200	> 200 µM
Oc1ccc(Oc2cc3c(cc2Oc2ccc(O)cc2)-c2nc-3nc3[nH]c(nc4nc(nc5[nH]c(n2)c2cc(Oc6ccc(O)cc6)c(Oc6ccc(O)cc6)cc52)-c2cc(Oc5ccc(O)cc5)c(Oc5ccc(O)cc5)cc2-4)c2cc(Oc4ccc(O)cc4)c(Oc4ccc(O)cc4)cc32)cc1		> 50.1	22.9 µM
O=[N+]([O-])/C(C(Cl)=C(Cl)Cl)=C1/OCCS1		> 200	107 µM
O=C1N(Cc2ccccc2)[C@H]2CS(=O)(=O)C[C@@H]2N1Cc1ccccc1		> 200	> 200 µM
Cc1n[nH]c(=O)n1C1CC1		> 200	> 200 µM
CC(=O)c1cc2c(cc1C(C)C)CC[C@H]1[C@](C)(C#N)CCC[C@]21C		> 200	174 µM and 126 µM

Structure (SMILES)	outcome	EC50 [µM]	IC50
Cc1ccc(NC(=O)CC/C(CC(=O)C(C)(C)C)=N/NC(=O)c2cc3ccccc3cc2O)cc1C		> 20.4	> 20.4 µM
CN(C)/N=N/c1nc2c(c(=O)n(C)c(=O)n2C)n1CC1CO1 (stereo not drawn)		> 200	12 µM
CC(C)(C)CP(=S)(CCP(CCP(=S)(CC(C)(C)C)CC(C)(C)C)CCP(=S)(CC(C)(C)C)CC(C)(C)C)CC(C)(C)C		> 12.3	> 12.3 µM
O=C(/C=C/c1ccc(Cl)cc1)c1ccncc1		> 40.7	38 µM
CC(=O)NC1C(O[C@H]2CC[C@@]3(C)C(CC[C@]4(C)C3CC=C3C5CC(C)(C)CC[C@]5(C(=O)O)CCC34C)C2(C)C)OC(CO)C(O)C1O (stereo partly drawn)		> 200	9.12 µM
CC1(C)/C(=C/N=O)N(O)C(C)(C)N1O		> 200	120 µM
CC1=C[C@]2(O)C(=O)[C@H](C)C[C@H]3[C@@H](CC[C@@](C)(O)/C=C\2C1=O)C3(C)C		> 30.2	15.8 µM
CCn1c2ccc(C(=O)CCCN3CCCCC3)cc2c2cc(C(=O)CCCN3CCCCC3)ccc21		> 43.7	0.229 µM
Cn1nc(-c2ccccc2)c2c(-c3ccccc3)c3cc(Cl)ccc3nc21		> 100	> 100 µM
COC(=O)[C@]1(C)CCC[C@]2(C)[C@H]3CC4OO[C@@]3(CC[C@H]21)[C@H]1O[C@@]41C(C)C	inactive		
O=[N+]([O-])/C(Cl)=C(\NCCN/C(C(Cl)=C(Cl)Cl)=C(/Cl)[N+](=O)[O-])C(Cl)=C(Cl)Cl		> 200	61.7 µM
CC1CCCC2(C1)OCC(O)CO2 (stereo not drawn)	inactive		
CN1COc2c(nc(-c3ccccc3)[nH]c2=O)C1		> 1020	61.7 µM
COc1ccc(/C(=N/O)c2ccccc2-c2nc3ccccc3c(=O)n2Nc2ccc([N+](=O)[O-])cc2[N+](=O)[O-])cc1C		> 200	43.7 µM
OCC(O)C(O)C(O)C1SC(c2ccccc2)=NN1c1ccccc1 (stereo not drawn)	inactive		
Cc1cc(C)c(C2=NOC(c3ccccc3)(c3cc(=O)n(-c4ccccc4)s3)O2)c(C)c1 (stereo not drawn)		8.51	38 µM
O=C1c2c(O)cc(O)cc2C(C2OC(CO)C(O)C(O)C2O)c2cc(CO)cc(O)c21 (stereo not drawn)		> 200	> 200 µM
CC1CC2OC(=N)C1(C#N)C2(C#N)C#N (stereo not drawn)		> 200	10.5 µM
NC(=O)n1ncc(Cl)c(Cl)c1=O		> 91.2	47.9 µM
Cc1[nH]c(=O)nc2[nH][nH]c(=O)c12	inactive		
